Results on 2 compounds are retold here after paper PMC2649372 (Biochemistry, 2008).

Experiment in all cases: Agonist-induced currents, voltage clamp electrophysiology in Xenopus oocytes
Holding throughout (type): cell-based

The target of test [1] is T1, N128V mutant 5-HT3 receptor (mouse 5-HT3A subunit) (Mus musculus, UniProt P23979, N128V).
T1 sequence (P23979 24-483 isoform P23979-2 N128V limits assumed): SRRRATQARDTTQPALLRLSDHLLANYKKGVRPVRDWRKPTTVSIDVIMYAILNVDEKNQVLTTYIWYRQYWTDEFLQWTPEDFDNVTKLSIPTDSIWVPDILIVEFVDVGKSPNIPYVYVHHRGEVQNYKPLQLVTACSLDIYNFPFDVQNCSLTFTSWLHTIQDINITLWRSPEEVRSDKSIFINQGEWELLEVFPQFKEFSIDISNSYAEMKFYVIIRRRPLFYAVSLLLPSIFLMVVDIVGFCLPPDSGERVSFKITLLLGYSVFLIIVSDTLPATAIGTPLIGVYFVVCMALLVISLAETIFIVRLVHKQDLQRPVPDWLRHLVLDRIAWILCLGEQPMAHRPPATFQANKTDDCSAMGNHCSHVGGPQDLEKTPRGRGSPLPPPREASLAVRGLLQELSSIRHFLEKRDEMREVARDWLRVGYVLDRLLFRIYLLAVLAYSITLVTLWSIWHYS

The target of test [2] is T2, N128A mutant 5-HT3 receptor (mouse 5-HT3A subunit) (Mus musculus, UniProt P23979, N128A).
T2 sequence (P23979 24-483 isoform P23979-2 N128A limits assumed): T1 sequence (P23979 24-483 isoform P23979-2 N128V limits assumed) with V105A
Conditions: N128A.

Test [3] has as its target T3, N128D mutant 5-HT3 receptor (mouse 5-HT3A subunit) (Mus musculus, UniProt P23979, N128D).
T3 sequence (P23979 24-483 isoform P23979-2 N128D limits assumed): T1 sequence (P23979 24-483 isoform P23979-2 N128V limits assumed) with V105D
Conditions: N128D.

The target of test [4] is T4, N128Q mutant 5-HT3 receptor (mouse 5-HT3A subunit) (Mus musculus, UniProt P23979, N128Q).
T4 sequence (P23979 24-483 isoform P23979-2 N128Q limits assumed): T1 sequence (P23979 24-483 isoform P23979-2 N128V limits assumed) with V105Q
The settings on record: N128Q.

For test [5], the target named is T5, E129H mutant 5-HT3 receptor (mouse 5-HT3A subunit) (Mus musculus, UniProt P23979, E129H).
T5 sequence (P23979 24-483 isoform P23979-2 E129H limits assumed): T1 sequence (P23979 24-483 isoform P23979-2 N128V limits assumed) with V105N, E106H

Molecules are shown by their SMILES. Numbering of substitutions follows the chain as printed. Marks after values point to notes of the source that are not given here.

As to `NCCc1c[nH]c2ccc(O)cc12` [5-HT, 5-hydroxytryptamine], the “nH (Hill coefficient)” value in test [1] was 3.18 ± 0.60; in test [2], 1.34 ± 0.13 ^b; in test [3], 1.63 ± 0.08 ^b; in test [4], 2.11 ± 0.29; in test [5], 1.07 ± 0.24 ^b.
As a reminder, the EC50 is the midpoint of the concentration-response curve. The low end stands for a more potent agent, the high end for a less potent agent. In general, pEC50 refers to the negative decadic logarithm of the EC50, by convention in mol/L. A higher pEC50 goes with a low EC50. Regarding `N=C(N)NC(=N)Nc1cccc(Cl)c1` [mCPBG, m-chlorophenylbiguanide], the EC50 in test [1] was found to be 74 nM; in test [2], 1100 nM; in test [3], 270 nM; in test [4] it was 3000 nM; in test [5], 370 nM. Moreover, the “nH (Hill coefficient)” value is 5.07 ± 0.85 ^b in test [1]; 1.33 ± 0.08 in test [2]; 1.54 ± 0.15 in test [3]; 2.41 ± 0.16 in test [4]; 1.63 ± 0.20 in test [5]. The pEC50 in test [1] is on record as 7.13 ± 0.02 ^b; in test [2], 5.95 ± 0.02; in test [3] (SR = small (<100 nA) responses), 6.56 ± 0.03; in test [4] it was 5.52 ± 0.18 ^b; in test [5], 6.43 ± 0.04.
